row,SMILES,melting point
1,CN1CC(CN2CC(=O)NC2=O)=CC2c3cccc4[nH]cc(c34)CC21 (stereo not given),204 to 206 °C
2,CN(C)CCNc1ccc(NCCN(C)C)c2c1C(=O)c1ccc(O)c(O)c1C2=O,133 to 135 °C
3,COC(=O)Cn1cccc(O)c1=O,141 to 142 °C
4,CCOC(=O)c1sc(SC)c2c1CCC(NC(C)=O)C2=O (stereo not given),215 to 216 °C
5,COc1cc(Oc2ccc(S(C)(=O)=O)cn2)cc2cc(C3=NCC(CC(C)(C)O)S3)[nH]c12 (stereo not given),171 to 173 °C
6,COc1ccc2c(c1)N(C)C(=O)C2(C)C,67 to 69 °C
7,Cc1cc(C(=O)O)sn1,203 to 204 °C
8,Cc1cc2ncc(NC(=O)C=Cc3ccc(O)c(O)c3)c(-c3ccccc3Cl)c2cc1C,272 to 274 °C
9,COc1ccc(C(=O)OCc2ccccc2)cc1NC(=S)Nc1cc(Cl)cc(Cl)c1,144 to 145 °C
10,CC(C)(C)OC(=O)N=C(N)N(CCc1ccc(OCCC2Oc3c(Cl)cc(Cl)cc3N(Cc3cccc(Cl)c3)C2=O)cc1)C(=O)OC(C)(C)C (stereo not given),115 to 117 °C
11,CC1CC(=O)NN=C1c1ccc(NC(=O)OCC2CC2)cc1 (stereo not given),240 to 241 °C
12,CC(=O)N1CCC(N2C(=O)CN=C(c3ccccc3)c3ccccc32)CC1,208 to 209 °C
13,C=Cn1c(C)c(C)c2cnnc(OCc3ccccc3)c21,85 to 86 °C
14,CC(=Cc1ccc(OCCCN(C)C)cc1)C(=O)O,> 190 °C
15,Cc1onc(NS(=O)(=O)c2cc(-c3ncccn3)ccc2-c2ccccc2CN(C)C(=O)CC(C)(C)C)c1C,120 to 128 °C
16,COC(=O)c1cnc2cccc(OC)c2c1,102 °C
17,NS(=O)(=O)OCCOc1ccccc1Cl,84.5 to 86 °C
18,CCOCCc1cc(C)c(OCC=NO)cc1C,66 to 70 °C
19,c1csc(-c2nc3ccc(N4CCC(N5CCCC5)CC4)nn3c2-c2ccncc2)c1,85 °C
20,Cc1ccc(CNCC2(F)CCN(C(=O)c3ccc(F)c(F)c3)CC2)nc1,158 °C
21,COc1ccc(-c2cc(=O)[nH]cn2)cc1OC,248 to 249 °C
22,CN(C)S(=O)(=O)c1cc(C(=O)CBr)ccc1Cl,98 °C
23,CNC(=O)ON=C1N=C(c2ccccc2)C(C)(C)S1,135 to 137 °C
24,Cc1c(C=O)cccc1C(=O)c1ccc(Cl)cc1,68 °C
25,COc1cc(OC)c(C2CCN(C)CC2OC(C)=O)c(Oc2cccs2)c1C(C)=O (stereo not given),153 to 154 °C

row,SMILES,melting point
1,CCCCOC(=O)Cc1nc(-c2ccc(F)cc2)oc1-c1ccsc1,81 to 82 °C
2,Cc1cc(Cl)nc2ccc(Cn3ccnc3)cc12,121 °C
3,CCOC1=NS(=O)(=O)c2ccc([N+](=O)[O-])cc21,151 to 154 °C
4,CCOC(=O)c1cnc2sc3c(n12)CCCCC3,73 to 74 °C
5,COc1ccc(CCN(C)CCCC(C#N)(C(=O)OC(C)C)c2ccc(OC)c(OC)c2)cc1OC (stereo not given),66 to 67 °C
6,NC(=S)C1(c2ccccn2)CCCS1 (stereo not given),192 °C
7,CCCOc1ccccc1-c1ccc(-c2nnn[nH]2)c(=O)[nH]1,229 to 231 °C
8,CCc1n[nH]c(CC)c1CCCCCCOc1ccc(OC)cc1[N+](=O)[O-],103 to 105 °C
9,CCCCOc1ccc(Cc2cnc(N)nc2N)cc1OC,143 to 147 °C
10,Cc1ccc(COc2cc(C(O)C#Cc3ccc(C(=O)O)cc3)cc3c2C(C)(C)CCC3(C)C)cc1 (stereo not given),219 °C
11,COC(=O)c1cc(N(CCO)CCO)c(S(C)(=O)=O)cc1[N+](=O)[O-],99 to 100 °C
12,COc1ccc2c(c1)C(=O)C(=O)C1=C2OC2(CCN(Cc3ccc(F)cc3)CC2)CS1,219 to 221 °C
13,Nc1nc(-c2ccco2)c(N2CCOCC2)s1,285 to 288 °C
14,CCOc1ccc(-c2nc(C=O)cs2)cc1OCC,84 to 87 °C
15,CC(C)OC(=O)N1CCC(c2nc3cc(-c4ccc(-n5cnnn5)c(F)c4)ccc3o2)CC1,187 to 191 °C
16,CN1Cc2c(C(=O)NN)ncn2-c2ccccc2C1=O,312 to 313 °C
17,CCC(CC)(CC(=O)Nc1cccc(OCc2ccc3ccccc3n2)c1)C(=O)O,149 to 150 °C
18,CC(=O)Oc1ccc(C(=O)Oc2ccc(C(=O)O)cc2)cc1C12CC3CC(CC(C3)C1)C2,264 to 265 °C
19,O=C1Nc2ccc(F)cc2C(C#Cc2ccccn2)(C(F)(F)F)N1 (racemic),155 °C
20,O=C(O)c1cccnc1NCc1ccccc1,148 °C
21,COC(=O)c1ccc2oc(=S)[nH]c2c1,218 to 221 °C
22,CCOC(CCOc1cc(Cc2cnc(N)nc2N)cc(OC)c1OC)OCC,105 to 106 °C
23,N#Cc1ccc(-c2ccc(OCCN(O)C=O)cc2)cc1,142 to 145 °C
24,CCOc1ccc(C2=NN(CCCCOc3ccc(C4=NNC(=O)CC4C)cc3)C(=O)C3CC=CCC23)cc1OCC (stereo not given),73 to 78 °C

# Continued, values first:
row,melting point,SMILES
1,187 to 190 °C,O=C(NCc1ccc(F)cc1-n1cncn1)c1nc2n(c(=O)c1OCc1ccccc1)CCN2c1ccccc1
2,163 °C,Cc1cc(C(=O)N2Cc3ccc(C(=O)C(Cl)(Cl)Cl)n3Cc3ccccc32)ccc1I
3,182 to 183 °C,CC(C)(Cc1c(Sc2ccccc2)c2cc(-c3ccccc3)ccc2n1Cc1ccc(Cl)cc1)C(=O)O
4,177 °C,COC(=O)c1ccccc1S(=O)(=O)N(c1ccn(-c2nc(C)cc(C)n2)n1)S(=O)(=O)c1ccccc1C(=O)OC
5,106 to 107 °C,O=C1c2ccccc2C(=O)N1CCc1ccc(F)cc1
6,179 to 181 °C,CCn1nc2c(N)nc3ccccc3c2c1CCc1ccccc1
7,74 to 84 °C,CC(C)[C@H](NC(=O)CC[C@H](C)CNC(=O)COc1ccccc1)[C@@H](O)c1c(-c2ccccc2)c1=O
8,166 to 168 °C,CC(c1ccccc1)C(C(=O)c1ccccc1)n1cncn1 (stereo not given)
9,139 to 140 °C,O=C(O)CCc1cn(Cc2ccc(OCc3coc(-c4ccccc4)n3)cc2)cc1-c1ccccc1
10,230 °C,Nc1nc[nH]c1-c1n[nH]c(-c2ccc(-c3ccccc3)cc2)n1
11,139 to 141 °C,O=C(Nc1ccccc1N1CCc2ccccc21)c1ccccc1F
12,203 to 204 °C,CCCCc1nc2ccn(Cc3ccccc3C(=O)OCC)c(=O)c2n1Cc1ccc(-c2ccccc2-c2nnn[nH]2)cc1
13,180 to 181 °C,Fc1cc(CC2(Cc3ccncc3)c3ccccc3Oc3ccccc32)ccn1
14,134 to 140 °C,COc1cccc(C23CCCC=C2C(=O)N(CCc2ccc(C)cc2)C(=O)C3)c1 (stereo not given)
15,255 °C,CCCCc1cn(Cc2ccc(-c3ccccc3C(=O)O)cc2)c2c(c1=O)CC(C)CC2 (stereo not given)
16,236 to 237 °C,O=C1OC(c2ccccc2)(c2ccccc2)C2CN(S(=O)(=O)c3ccccc3)CCN12 (stereo not given)
17,196 °C,CS(=O)(=O)C(=C1CN(C(c2ccccc2)c2ccccc2)C1)c1cccc2ccccc12
18,94 °C,CCC(CC(Oc1ccccc1)C(=O)O)Oc1ccc(Cl)cc1 (stereo not given)
19,110 to 112 °C,O=C1C(c2ccc(Cl)cc2)Sc2ccc3ccccc3c2N1CCCCl (stereo not given)
20,138 to 140 °C,O=S(=O)(c1ccc(S)cc1)c1ccc(S)cc1
21,80 to 83 °C,O=C(O)CNC(=O)c1cccc(NC(=O)C(CS)Cc2ccccc2)c1 (stereo not given)
